How the values were obtained:
[1] = test system: neuron specific enolase (NSE)/enolase 2; assay: Suppression of neuron specific enolase (NSE)/enolase 2 (Example 18); assay type: cell-based; settings: FIG. 57
IL-8 = IL-8 secretion in HMC3 cells (ELISA); assay type: cell-based, Human; settings: 10% cell-free supernatant 24 h, in the absence of stimulation (no TNF-α)
Protocol: Human microglia HMC3 cells were grown in glutamine-supplemented EMEM media containing 15% heat inactivated FBS and 100 U/ml penicillin and 100 μg/ml streptomycin. HMC3 cells were plated in 24 well plates at a density of 50,000 cells/well. Cells were left in CO2 incubator to rest for 48 h. The cells were then washed in blank EMEM and pre-treated in 2% FBS growth media with 10 ng/ml TNF-α for 1 h. Thereafter 10% cell-free bacterial supernatants for NCIMB 42787 stationary growth cultures (isolated as described above) were added to TNF-α-treated and untreated wells and incubated in CO2 incubator at 37° C. for 24 h. Cell-free supernatants were collected and centrifugated at 10,000×g for 3 min and 4° C. Samples were aliquoted in 1.5 ml microtubes and stored in −80° C. for hIL-8 ELISA.
Secretion of IL-8 was analysed using hIL-8 Standard ELISA Kits, according to the manufacturer's protocol in the cell-free supernatants from HMC3 cells treated as described above. Samples were measured at 405 nm with correction wavelength set at 655 nm on a microplate reader (iMark, Bio-Rad). Raw data were plotted and analysed using GraphPad Prism 7 software.

PBMCs = assay: Basic cell phenotyping on PBMCs from healthy donors (flow cytometry); assay type: cell-based
Protocol: Frozen healthy human PBMCs were purchased from Stem Cells Technologies (Cambridge UK). Briefly cells were thaw and left to rest overnight in full growth media (RPMI 1640 with 10% FBS, 2 mM L. Glutamine, 55 μM 2-Mercapoethanol and 100 U/ml penicillin, 100 μg/ml streptomycin) in CO2 incubator at 37° C. For the experiment cells were plated at a density of 750,000 Cell/well in 48 well plates and treated in full growth media with 10% bacteria supernatants in the presence or absence of 1 ng/ml LPS. Cell culture media was added to untreated wells. Cells were left to rest for 72 h, thereafter cell free supernatants were collected and spun down for 3 minutes at 10,000 g at 4° C. Samples were stored at −80° C. for cytokine analysis.
1.5×10^6 cells per sample were stained with viability fixable dye (Miltenyi) to discriminate between live and dead cells for 10 min at RT. Afterwards the cells were stained with the cocktail of antibodies listed below (Miltenyi) for basic immunophenotyping (CD3/CD4/CD8/CD25/CD127 and CD19) and incubated for 10 min at RT.
Experiments were carried out to measure the percentage of the following cell populations: • CD4+CD3+ cells (markers of CD4 T-helper cells) • CD4+CD25+ cells (markers of CD4+ activated cells) • CD25++[…] cells out of the CD4+ cell population (markers of Tregs cells) • CD8+CD3+ cells (markers of cytotoxic T cells) • CD25+CD8+ cells (markers of CD8+ activated cells) • CD19+CD3− cells (markers of B cells).
The ratio of CD8+/Tregs and the ratio of activated CD8/Treg cells were determined.
Flow cytometry analysis of different cell populations 1.5×10^6 cells per sample were stained with viability fixable dye (Miltenyi) to discriminate between live and dead cells for 10 min at RT. Afterwards the cells were stained with the cocktail of antibodies listed below (Miltenyi) for basic immunophenotyping (CD3/CD4/CD8/CD25/CD127 and CD19) and incubated for 10 min at RT. Cells were then washed and resuspended in PBS and immediately analysed using a FACS Aria II equipped with Blue (488 nm), Red (633 nm) and Violet (405 nm) lasers. FMOs were included throughout all the experiments. For the analysis Flowjo version 10.4.2 software (FlowJo, LLC) was used.

MAP2 = MAP2 expression in SH-SY5Y cells (qPCR, Example 22); assay type: cell-based; settings: 10% bacterial supernatants 17 h, vs negative control and media control
Protocol: SH-SY5Y were plated in 6 well plates at a density of 0.5×10^6 cells. After 24 h, cells were treated in differentiation medium (growth medium containing 1% FBS) with 10% bacterial supernatants or YCFA+ for 17 h. Cells were collected, and total RNA was isolated according to the RNeasy mini kit protocol (Qiagen). cDNA was made using the High Capacity cDNA reverse transcription kit (Applied Biosystems). Gene expression was measured by qPCR. GAPDH was used as internal control. Fold change was calculated according to the 2^(−ΔΔct) method. Primer sets used are listed as SEQ ID NOs: 2, 3, 4 and 5.

[2] = test system: ERK signalling (phosphorylated ERK1 and 2/total ERK); assay: ERK signalling in HT29 cell line (Western blot); assay type: cell-based; settings: HT29 (V600E oncogenic mutation)
Protocol: Following 24 h treatment with the appropriate drugs either in presence of 10% bacterial supernatant or absence (YCFA+), protein extracts were obtained by lysing cells in RIPA buffer (R0278; Sigma Aldrich) supplemented with protease inhibitors (cOmplete Protease Inhibitor Cocktail Tablets; Roche, Switzerland) and 1 mM/L sodium orthovanadate, 0.5 mM/L PMSF. Protein quantification was done by the BCA protein assay. Equal amounts of total protein (20 μg/lane) were then separated by SDS-PAGE on 4-15% gradient gel (BioRad) and transferred to polyvinylidene difluoride (PVDF) membranes (Thermo Fisher Scientific, Loughborough). […]
Proteins of interest were detected with the appropriate HRP-conjugated secondary antibody (1:10,000, Thermo Fisher Scientific, Loughborough), developed with the ECL Western blotting Super Signal PicoPlus substrate (34577; Thermo Fisher Scientific, Loughborough), and visualised in Chemidoc XRS Imager (BioRad).
The effects of the following treatments were assessed on the HT29 colorectal cancer cell line (V600E oncogenic mutation in BRAF): (1) MRx0029; (2) Vemurafenib (VEMU) in YFCA+ medium; (3) VEMU and MRx0029; (4) Azacytidine-C (Aza-c) in YCFA+ medium; (5) Aza-c and MRx0029; (6) VEMU, Aza-c and MRx0029.

Megasphaera massiliensis MRx0029
neuron specific enolase (NSE)/enolase 2 [1]: statistically-significant effect suppressing
IL-8 secretion (IL-8): induces IL-8 secretion
percentage of B cells (PBMCs; 10% bacteria supernatant, 72 h): did not significantly change
percentage of CD4+ activated cells (PBMCs; 10% bacteria supernatant, 72 h): did not significantly change
percentage of CD4 T-helper cells (PBMCs; 10% bacteria supernatant, 72 h): did not significantly change
percentage of CD8+ activated cells (PBMCs; 10% bacteria supernatant, 72 h): did not significantly change
percentage of CD25++CD17− cells (Tregs) (PBMCs; 10% bacteria supernatant, 72 h): selectively reduced the percentage of Tregs
percentage of cytotoxic T cells (PBMCs; 10% bacteria supernatant, 72 h): did not significantly change
ratio of CD8+/Tregs (PBMCs; vs untreated cells): increased the ratio of CD8+/Tregs
ratio of activated CD8/Treg cells (PBMCs; vs untreated cells): increased
MAP2 expression (MAP2): statistically-significant increase of MAP2 expression
ERK signalling [2]: inhibiting ERK signalling
